Measurements reported in patent US12156867B2, “Melanocortin agents for use in the therapeutic treatment of melanoma, tumors of the gastrointestinal tract, and thyroid carcinoma” (UNIVERSITA' DI PISA, priority 2018, dated 2024).

Key:
Assay type in all cases: cell-based
[1] = test system: WM 266-4 human melanoma cell line; assay: In vitro cytotoxicity / antiproliferative effect, cell count after 72 h; settings: for IC50: Homo sapiens, WM 266-4 cells, 72 h drug exposure, cell proliferation vs vehicle controls
Text: (§1) The present study used the human melanoma cell lines A-2058 BRAF-mutant (CRL-11147), obtained from ATCC (American Type Culture Collection, Manassas, USA), and WM-266-4 (91061233), obtained from ECACC (European Collection of Authenticated Cell Cultures). In addition, carcinoma cells of the gastrointestinal tract (Caco-2, HT-29) and thyroid carcinoma cells (8305C) were used. The compound ML00253764 was purchased from Tocris Bioscience (Bristol, UK), and solubilized in sterile water. The compound Vemurafenib was obtained from Selleckchem (Munich, Germany) and dissolved in dimethyl sulfoxide (DMSO). For the in vitro studies, both drugs were dissolved in a stock solution at 10 mM concentration. In the same experiment, the concentration of DMSO in the medium of the controls was the same used to obtain the maximum concentration of Vemurafenib in the cell culture media. The biotinylated anti-rabbit IgG antibody and the avidin-biotin complex were purchased from Vector Laboratories (Burlingame, CA, USA), while TO-PRO-3 iodide was from Molecular Probes (Eugene, OR, USA). Anti-MC4R antibody (ab75506) and goat anti-rabbit IgG antibody (Alexa Fluor 488) were purchased from Abcam (Cambridge, MA, USA).
(§2) The two tumor cell lines WM-266-4 and A-2058 were grown in cell culture flasks as monolayers and maintained in EMEM and DMEM, respectively, supplemented with 10% fetal bovine serum (FBS), penicillin (50 IU/ml), streptomycin (50 μg/ml) and L-Glutamine (2 mM). The Caco-2, HT-29 and 8305C cells, respectively, were grown in EMEM 20% FBS, McCoy's 5a Medium Modified 10% FBS and RPMI 20% FBS. All reagents used for maintaining tumor cells in culture were purchased from Sigma-Aldrich. The cell lines were maintained in the B5061EK/CO2 mod. Heraeus incubator (Hanau, Germany) at a temperature of 37° C. in a humid atmosphere at 5% CO2. The cells were detached from the culture plates while in the logarithmic growth phase by using a 10× trypsin-EDTA solution and finally plated again to be tested or to keep them in culture.
(§3) The concentration that reduced cell survival by 50% (IC50) compared to controls was finally calculated with GraphPad Prism (version 5.0, San Diego, CA). The simultaneous combination of Vemurafenib and ML00253764 was assessed in the 2 melanoma lines for 72 hours using the aforementioned compounds in a fixed molar ratio of 1:10. The assessment of the level of interaction (synergism, additivity or antagonism) between the compounds ML00253764 and Vemurafenib was performed with the Combination Index (CI) method, according to which CI=1 indicates an additive effect, CI>1 an antagonistic effect and CI<1 a synergistic effect.

[2] = test system: A-2058 human melanoma cell line; assay: as above; settings: A-2058 cells; for IC50: Homo sapiens, A2058, 72 h drug exposure, cell proliferation vs vehicle controls
Text: as §1, §2, §3

[3] = test system: A-2058 human melanoma cells; assay: Apoptosis visualised by TO-PRO3 iodide nuclear staining, confocal microscopy; settings: A-2058 cells, 10 nM, 72 h
Method: (§4) In order to assess the apoptotic activity, the melanoma cells were plated at 2×10^5 in sterile Petri dishes. The analysis of apoptosis was performed on WM-266-4 and A-2058 cell lines after treatment with the compound ML00253764 at the experimental IC50 obtained after 72 hours. After the treatment, the cells were scraped off and recovered with their medium into blind ended tubes and counted in the Burker chamber. An aliquot containing 50,000 cells was centrifuged for 10 minutes at 800 rpm, the pellet thus obtained was lysed with an appropriate volume of lysis buffer for 30 minutes at room temperature, then again centrifuged at 200 g for 10 minutes. The supernatant was used for apoptosis analysis by ELISA assay (Cell Death detection ELISA PLUS, Roche). The ELISA apoptosis assay was performed in 96-well microplates and the absorbance reading was performed by using the Thermo labsystems Multiskan Spectrum reader (M-Medical, MI). To visualize the apoptotic process, 2×10^4 A-2058 cells were plated on slides in a 12-well plate and treated for 72 hours with the compound ML00253764 at a concentration of 10 nM. At the end of the incubation with the drug, the cells were washed with PBS, fixed and stained with TO-PRO3 iodide. The coverslips were finally mounted, and the slides viewed under a Leica TCS SP5 confocal laser scanning microscope. […]

[4] = test system: WM 266-4 human melanoma cells; assay: Apoptosis analysis by Cell Death Detection ELISA Plus; settings: WM 266-4 cells, 35 nM (corresponding to the IC50), 72 h
Method: as §4

[5] = test system: A-2058 human melanoma cells; assay: as above; settings: A-2058 cells, 10 nM (corresponding to the IC50), 72 h
Method: as §4

[6] = test system: 8305C human thyroid carcinoma cell line; assay: In vitro cytotoxicity / antiproliferative effect, cell count after 72 h; settings: 8305C cells
Text: as §1, §2, §3
(§5) The related IC50s were calculated at the end of the experiments.

[7] = test system: HT-29 human carcinoma cell line of the gastrointestinal tract; assay: as above; settings: HT-29 cells
Text: as §1, §2, §3, §5

[8] = Homo sapiens, 72 h drug exposure, cell proliferation vs vehicle controls

SMILES | IC50 [1] | IC50 [2] | antiproliferative effect ([1]; WM-266-4 cells, 10 nM, 72 h) | antiproliferative effect ([2]; 10 nM, 72 h) | apoptosis, TO-PRO3 nuclear fluorescence [3] | apoptotic signal (ELISA, cytosolic nucleosomes) [4] | pro-apoptotic activity (ELISA, cytosolic nucleosomes) [5] | antiproliferative effect ([6]; 10 nM, 72 h) | IC50 [6, 8] | antiproliferative effect ([7]; 10 nM, 72 h) | IC50 [7, 8]
CCCS(=O)(=O)Nc1ccc(F)c(C(=O)c2c[nH]c3ncc(-c4ccc(Cl)cc4)cc23)c1F [Vemurafenib] | 46.6 nM | 526 nM | – | – | – | – | – | – | – | – | –
COc1ccc(Br)cc1CCc1c(F)cccc1C1=NCCN1 [ML00253764, 2-[2-[2-(5-bromo-2-methoxyphenyl)-ethyl]-3-fluorophenyl]-4,5-dihydro-1H-imidazole] | 33.7 nM | 11.1 nM | significant antiproliferative effect | significant antiproliferative effect | increase in fluorescence with “shrunken” nuclei | significant increase in the apoptotic signal | significant pro-apoptotic activity | significant antiproliferative effect | 7670 nM | significant antiproliferative effect | 806 nM
